PMC5094908 (Journal of applied toxicology : JAT, 2016)
Structures can show the parent of a compound that is named as a salt. Where two headings read alike, the source gives them in different places.

Assays:
[1] = tested on: SH-SY5Y and dSH-SY5Y cells; assay: qPCR of apoptosis-pathway genes after 6 h toxicant treatment; format: cell-based, human; conditions: MAP 12.5 µM, MALG 1.56 µM, MHG 1.56 µM, RSR 10 µM
[2] = tested on: Caspase 3/7 activity in SH-SY5Y and dSH-SY5Y cells; assay: Caspase-Glo 3/7 luminescence assay, 24 h; format: cell-based
[3] = tested on: HEK293, SH-SY5Y, SK-N-SH, or N2a; conditions: cited from earlier work
[4] = tested on: Caspase 3/7 activity in LUHMES and dLUHMES cells; assay: Caspase-Glo 3/7 luminescence assay, 24 h; format: cell-based, human
[5] = 24 h exposure, 0.78 to 100 µM, vs SH-SY5Y/dSH-SY5Y and NSC/dNSC
[6] = dLUHMES, 24 h, threshold […] above control

## [CH3][Hg+] [MHG, Methyl mercury (II)]
[1]; SH-SY5Y and dSH-SY5Y (either cell type), DTCM 10 µM
  BIRC5 gene expression: down-regulation
[1]; SH-SY5Y and dSH-SY5Y (either cell type)
  BIRC3 gene expression: down-regulation
[1]; both SH-SY5Y and dSH-SY5Y, DTCM 10 µM
  BAG3 expression: increased expression

## COc1cccc2c1C(=O)c1c(O)c3c(c(O)c1C2=O)C[C@@](O)(C(=O)CO)C[C@@H]3O[C@H]1C[C@H](N)[C@H](O)[C@H](C)O1 [DOX, Doxorubicin]
[2]
  peak Caspase 3/7 activities, ranking among compounds: highest activities
[3]
  In vitro neural selectivity: neural-derived cell lines 10-fold more sensitive (10-fold lower IC50) than the median of the other 9 cell lines: HEK293, SH-SY5Y, SK-N- SH ([Huang et al., 2008], [Xia et al., 2008])

## COc1cccc2c1C(=O)c1c(O)c3c(c(O)c1C2=O)C[C@@](O)(C(C)=O)C[C@@H]3O[C@H]1C[C@H](N)[C@H](O)[C@H](C)O1 [DAUN, Daunorubicin]
[2]
  peak Caspase 3/7 activities, ranking among compounds: highest activities
[3]
  In vitro neural selectivity: neural-derived cell lines 10-fold more sensitive (10-fold lower IC50) than the median of the other 9 cell lines: HEK293, SH-SY5Y, SK-N- SH, N2a ([Huang et al., 2008], [Xia et al., 2008])

## Tunicamycin [TUNC]
LUHMES and dLUHMES cells; [5]
  cytotoxic sensitivity ([ATP] IC50) of LUHMES and/or dLUHMES relative to the other cell lines: more sensitive than the other cell lines

## CC[C@]1(O)C[C@H]2CN(CCc3c([nH]c4ccccc34)[C@@](C(=O)OC)(c3cc4c(cc3OC)N(C=O)[C@H]3[C@@](O)(C(=O)OC)[C@H](OC(C)=O)[C@]5(CC)C=CCN6CC[C@]43[C@@H]65)C2)C1 [VIN, Vincristine sulfate]
LUHMES and dLUHMES cells
  cytotoxic sensitivity ([ATP] IC50) of LUHMES and/or dLUHMES relative to the other cell lines: more sensitive than the other cell lines

## Cc1c(O)cccc1C(=O)N[C@@H](CSc1ccccc1)[C@H](O)CN1C[C@H]2CCCC[C@H]2C[C@H]1C(=O)NC(C)(C)C [NLF, Nelfinavir]
LUHMES and dLUHMES cells
  cytotoxic sensitivity ([ATP] IC50) of LUHMES and/or dLUHMES relative to the other cell lines: more sensitive than the other cell lines
[3]
  In vitro neural selectivity: neural-derived cell lines 10-fold more sensitive (10-fold lower IC50) than the median of the other 9 cell lines: SH-SY5Y ([Huang et al., 2008], [Xia et al., 2008])

## Aflatoxin B1
LUHMES and dLUHMES cells
  cytotoxic sensitivity ([ATP] IC50) of LUHMES and/or dLUHMES relative to the other cell lines: more sensitive than the other cell lines
  relative cytotoxic sensitivity of LUHMES versus dLUHMES cells: LUHMES cells were more sensitive than dLUHMES cells
[4]
  increase of Caspase 3/7 activity in dLUHMES: but not dLUHMES

## Sodium dichromate [CR2]
[3]
  In vitro neural selectivity: neural-derived cell lines 10-fold more sensitive (10-fold lower IC50) than the median of the other 9 cell lines: SH-SY5Y ([Huang et al., 2008], [Xia et al., 2008])

## COc1cc2c(c(OC)c1OC)-c1ccc(OC)c(=O)cc1[C@@H](NC(C)=O)CC2 [CLCH, Colchicine]
LUHMES and dLUHMES cells
  cytotoxic sensitivity ([ATP] IC50) of LUHMES and/or dLUHMES relative to the other cell lines: more sensitive than the other cell lines
[3]
  In vitro neural selectivity: neural-derived cell lines 10-fold more sensitive (10-fold lower IC50) than the median of the other 9 cell lines: HEK293, SH-SY5Y, SK-N- SH, N2a ([Huang et al., 2008], [Xia et al., 2008])

## C[C@H]1O[C@@H](O[C@H]2[C@@H](O)C[C@H](O[C@H]3[C@@H](O)C[C@H](O[C@H]4CC[C@@]5(C)[C@H](CC[C@@H]6[C@@H]5C[C@@H](O)[C@]5(C)[C@@H](C7=CC(=O)OC7)CC[C@]65O)C4)O[C@@H]3C)O[C@@H]2C)C[C@H](O)[C@@H]1O [DGX, Digoxin]
LUHMES and dLUHMES cells
  cytotoxic sensitivity ([ATP] IC50) of LUHMES and/or dLUHMES relative to the other cell lines: more sensitive than the other cell lines

## [CH3][Sn]([CH3])([CH3])[Cl] [TMT, Trimethyltin chloride]
LUHMES and dLUHMES cells; [5]
  cytotoxic sensitivity ([ATP] IC50) of LUHMES and/or dLUHMES relative to the other cell lines: more sensitive than the other cell lines
LUHMES and dLUHMES cells; 24 h exposure, [ATP], 0.78 to 100 µM
  relative cytotoxic sensitivity of LUHMES versus dLUHMES cells: dLUHMES cells were markedly more sensitive than LUHMES cells

## Cc1ccc2c(c1[N+](=O)[O-])C(=O)c1ccccc1C2=O [MNA, 2-Methyl-1-nitroanthraquinone]
LUHMES and dLUHMES cells
  cytotoxic sensitivity ([ATP] IC50) of LUHMES and/or dLUHMES relative to the other cell lines: more sensitive than the other cell lines
[4]; [6]
  increase of Caspase 3/7 activity in dLUHMES: but not dLUHMES
[3]; qHTS cytotoxicity, ref Huang et al., 2008, Xia et al., 2008
  In vitro neural selectivity: neural-derived cell lines 10-fold more sensitive (10-fold lower IC50) than the median of the other 9 cell lines: HEK293 ([Huang et al., 2008], [Xia et al., 2008])

## O=c1c(-c2ccc(O)cc2)coc2cc(O)cc(O)c12 [GEN, Genistein]
[4]; [6]
  increase of Caspase 3/7 activity in dLUHMES: but not dLUHMES

## Ziram
[3]
  In vitro neural selectivity: neural-derived cell lines 10-fold more sensitive (10-fold lower IC50) than the median of the other 9 cell lines: SH-SY5Y ([Huang et al., 2008], [Xia et al., 2008])
